Source: US11918668B2, “Method for producing glyceryl ether-containing composition, and glyceryl ether-containing composition” (ADEKA CORPORATION, priority 2018, dated 2024)

Experiment: Measurement of total area by solid phase microextraction GC/FID method
Assay type: physicochemical
Parameters: unit not given here
Conditions: total area attributable to components other than the glyceryl ethers; 1.0 g glyceryl ether, 15 minutes at 50° C., after deodorization for the stated time
Protocol: The total area, as measured using a solid phase microextraction GC/FID method, was measured for each of glyceryl ethers 1 to 12 following the deodorization. Specifically, 1.0 g of a deodorized glyceryl ether was placed in a container, impurities and by-products contained in the glyceryl ether were adsorbed on fibers of DVB/PDMS (divinylbenzene dispersed/polydimethylsiloxane) by heating for 15 minutes at 50° C., these fibers were placed in a holder, and measurements were carried out using gas chromatography (apparatus: GC-2014, produced by Shimadzu Corporation) under the measurement conditions shown below. The total area attributable to components other than the glyceryl ethers was then calculated on the basis of a JIS K 0114 (2012) absolute calibration curve using the analysis software of the chromatography apparatus.
Column: InertCap (registered trademark) PureWAX (length 30 m, film […] 0.50 μm, inner diameter […])
Carrier flow rate: 124.5 mL/min
Injection port temperature: 260° C.
Detector temperature: 260° C.

Compound | Total area
CCCCCCOCC(O)CO (stereo not drawn) [Glyceryl ether 1, Monohexyl glyceryl ether] | 200,000
CCCCCCOCC(O)CO (stereo not drawn) [Glyceryl ether 2, Monohexyl glyceryl ether] | 120,000
CCCCCCOCC(O)CO (stereo not drawn) [Glyceryl ether 3, Monohexyl glyceryl ether] | 80,000
CCCCCCOCC(O)CO (stereo not drawn) [Glyceryl ether 4, Monohexyl glyceryl ether] | 80,000
CCCCCCOCC(O)CO (stereo not drawn) [Glyceryl ether 5, Monohexyl glyceryl ether] | 60,000
CCCCCCOCC(O)CO (stereo not drawn) [Glyceryl ether 6, Monohexyl glyceryl ether] | 50,000
CCCCCCOCC(O)CO (stereo not drawn) [Glyceryl ether 7, Monohexyl glyceryl ether] | 50,000
OCC(O)COC1CCCCC1 (stereo not drawn) [Glyceryl ether 8, Monocyclohexyl glyceryl ether] | 300,000
OCC(O)COC1CCCCC1 (stereo not drawn) [Glyceryl ether 9, Monocyclohexyl glyceryl ether] | 150,000
OCC(O)COC1CCCCC1 (stereo not drawn) [Glyceryl ether 10, Monocyclohexyl glyceryl ether] | 90,000
OCC(O)COC1CCCCC1 (stereo not drawn) [Glyceryl ether 11, Monocyclohexyl glyceryl ether] | 50,000
OCC(O)COC1CCCCC1 (stereo not drawn) [Glyceryl ether 12, Monocyclohexyl glyceryl ether] | 50,000
